Results published in the CATMoS acute toxicity set (Mansouri et al. 2021).

Assay: GHS categories as the set defines them, by LD50: 1 up to 5, 2 up to 50, 3 up to 300, 4 up to 2000, 5 above 2000 mg/kg
Conditions: rat; in vivo; po

Compound | GHS category
CCCCC(=O)N(Cc1ccc(-c2ccccc2-c2nn[nH]n2)cc1)[C@H](C(=O)OCc1ccccc1)C(C)C | 4
NC(=O)O | 4
CCOc1nc2cccc(C(=O)OC(C)OC(=O)OC3CCCCC3)c2n1Cc1ccc(-c2ccccc2-c2nnn[nH]2)cc1 (stereo unspecified) | 5
N[C@@H](CC(=O)N1CCn2c(nnc2C(F)(F)F)C1)Cc1cc(F)c(F)cc1F | 5
CCCS(=O)(=O)Nc1ccc(F)c(C(=O)c2c[nH]c3ncc(Br)cc23)c1F | 5
CCOc1ccc(NC(=O)OC(C)C)cc1OCC | 5
CC(C)=CCCC(C)=CC1OCCO1 | 5
CCCCOC(=O)CC(C)C | 5
NC(N)=NCc1ccc2c(c1)OCCO2 | 5
CCCCC(CC)C(c1ccc(O)cc1)c1ccc(O)cc1 (stereo unspecified) | 4
ClC(=Nc1c(Cl)c(Cl)c(Cl)c(Cl)c1Cl)C(Cl)(Cl)Cl | 4
CC1(C)COB(OCC(C)(C)COB2OCC(C)(C)CO2)OC1 | 5
Cc1c([N+](=O)[O-])cc2c(c1[N+](=O)[O-])C(C)(C)CC2(C)C | 5
CCCCCCCC(=O)N(CCO)CCO | 5
CC(C)=CCN(CC=C(C)C)CCC(CCN(CC=C(C)C)CC=C(C)C)(C(N)=O)c1cccc2ccccc12 | 4
CN1C(=CC=O)C(C)(C)c2ccccc21 | 3
CCS(=O)(=O)c1nc2ccccn2c1S(=O)(=O)NC(=O)Nc1nc(OC)cc(OC)n1 | 5
C=CC(=C)C | 5
CSCCC(NC(=O)C(N)Cc1c[nH]c2ccccc12)C(=O)NC(CC(=O)O)C(=O)NC(Cc1ccccc1)C(N)=O (stereo unspecified) | 5
C=C[Si](C)(N(CC)C(C)=O)N(CC)C(C)=O | 4
CC(CC(=O)OCCN1C(C)(C)CC(OC(=O)CC(C)CC(C)(C)C)CC1(C)C)CC(C)(C)C (stereo unspecified) | 5

Compound | GHS category
COc1nc2cc(Cl)ccc2o1 | 4
CC12CCCC(O)(C1)C1CC(C)(C)C1CC2 (stereo unspecified) | 5
COc1nc(Nc2ccccc2)nc(Nc2ccc(C=Cc3ccc(Nc4nc(Nc5ccccc5)nc(OC)n4)cc3S(=O)(=O)O)c(S(=O)(=O)O)c2)n1 | 5
CC1CC(OC(=O)COc2ccc(I)cc2)CC(C)(C)C1 (stereo unspecified) | 5
CCC(=O)O[C@]1(C(C)=O)CC[C@H]2[C@@H]3CCC4=CC(=O)C=C[C@]4(C)[C@H]3[C@@H](O)C[C@@]21C | 5
CSc1nc2cc(Cl)c(Oc3cccc(Cl)c3Cl)cc2[nH]1 | 5
C=C(C)C(=O)OCCNC(C)(C)C | 4
CC/C=C\CCOC=O | 5
CCCN(CCC)c1c([N+](=O)[O-])cc(C(C)C)cc1[N+](=O)[O-] | 5
Nc1nc(/C(=C/CC(=O)O)C(=O)N[C@@H]2C(=O)N3C(C(=O)O)=CCS[C@H]23)cs1 | 5
Nc1cc(Cl)nc(C(=O)O)c1Cl | 5
CCCCCCCCCCCCCCCC(=O)OC1=C(C(=O)Nc2ccccn2)N(C)S(=O)(=O)c2ccsc21 | 2
CCC(=O)C=CC1C(C)=CCCC1(C)C (stereo unspecified) | 5
Cc1cccc(C)c1OP(=O)(Oc1cccc(OP(=O)(Oc2c(C)cccc2C)Oc2c(C)cccc2C)c1)Oc1c(C)cccc1C | 5
CC1CC(OC(=O)COc2ccc(Cl)cc2)CC(C)(C)C1 (stereo unspecified) | 5
COc1c(Cl)ccc(B(O)O)c1F | 5
CCCCCCCCCCCCCCCC(=O)O | 5
Cc1cccc2ncc(C(=O)Nc3ccc(F)cc3)c(=O)n12 | 3
Nc1ccc(S(=O)(=O)O)cc1N | 5
CCCOc1nn(-c2cccc(C(F)(F)F)c2)c2ncccc12 | 4
NC(=O)Nc1ccc(Cl)c(Cl)c1 | 4

Compound | GHS category
c1ccc2sc(SN3CCOCC3)nc2c1 | 5
O=C1c2ccccc2OC1c1ccccc1 (stereo unspecified) | 5
Cc1cccc(C)c1N(CCCC(=O)O)C(=O)c1ccccc1Cl | 5
CNC(=O)Nc1ccc(Cl)c(Cl)c1 | 4
COC(=O)/C=C(/C)N[C@@H](C(=O)O)c1ccc(O)cc1 | 5
CC(C)(C)C(=O)OCOC(=O)[C@@H]1N2C(=O)[C@@H](NC(=O)[C@H](N)c3ccccc3)[C@H]2SC1(C)C | 5
Nc1cc(C(=O)NCC(O)CO)cc(C(=O)NCC(O)CO)c1 (stereo unspecified) | 5
C[Si](C)(C)O[Si](C)(C)O[Si](C)(C)C | 5
N#Cc1c[nH]cc1-c1cccc2c1OC(F)(F)O2 | 5
ClC1C(Br)C(Br)C(Br)C(Br)C1Br (stereo unspecified) | 5
C[Si](C)(C)C | 5
CCC1COC(=O)O1 (stereo unspecified) | 5
COC(=O)C(C)CCC(=O)N(C)C (stereo unspecified) | 5
CCCCCCCCCCCC(=O)OCC(C)O (stereo unspecified) | 5
COc1ccc(C=C(C(=O)Nc2ccccc2C(=O)O)C(=O)Nc2ccccc2C(=O)O)cc1OC | 5
Clc1ccc2c(n1)C(c1ccccc1Cl)=NCc1nncn1-2 | 5
CCO[Si](CC(C)CC(C)(C)C)(OCC)OCC (stereo unspecified) | 5
O=S(=O)(O)c1ccc(Nc2nc(Nc3ccc(C=Cc4ccc(Nc5nc(Nc6ccc(S(=O)(=O)O)cc6)nc(N6CCOCC6)n5)cc4S(=O)(=O)O)c(S(=O)(=O)O)c3)nc(N3CCOCC3)n2)cc1 | 5
O=C1c2ccccc2C(c2ccc(O)cc2)(c2ccc(O)cc2)N1c1ccccc1 | 5
CC1=NN(c2cccc(S(=O)(=O)O)c2)C(=O)C1/N=N/c1cc(Cl)c(C)cc1S(=O)(=O)O (stereo unspecified) | 5
O=C1c2ccccc2C(=O)N1CCO | 5

Compound | GHS category
Nc1nc2c(ncn2[C@@H]2O[C@H](COP(=O)(O)O)[C@@H](O)[C@H]2O)c(=O)[nH]1 | 5
OC1CCC(CN2CCC(=C3c4ccc(F)cc4Sc4ccc(C(F)(F)F)cc43)CC2)CC1 (stereo unspecified) | 3
CCC1COC(Cn2cncn2)(c2cc3cc(Cl)ccc3o2)O1 (stereo unspecified) | 4
NCCS(=O)(=O)O | 5
Cc1c(C)c([N+](=O)[O-])c(C(C)(C)C)c([N+](=O)[O-])c1C | 5
Clc1ccc(Cl)nn1 | 3
CN1C(=O)c2ccc3c4ccc5c6c(ccc(c7ccc(c2c37)C1=O)c64)C(=O)N(C)C5=O | 5
O=C(O)c1ccccc1C(=O)N1CCSC1 | 5
CCOC(=O)OCCOc1cc(O)c2c(c1N)C(=O)c1ccccc1C2=O | 5
COC(=O)c1nccnc1N | 5
CNC(=O)C(=NNc1cccc(Cl)c1)C(C)=O | 5
OC1C(Cl)(Cl)C(=C(Cl)Cl)C2(OC2Cl)C1(Cl)Cl (stereo unspecified) | 4
CC(C)CC(=O)OC1CC(C)CCC1C(C)C (stereo unspecified) | 5
c1ccc2c(c1)CCc1ccccc1N2 | 5
CC(C)CCCCCCOC(=O)C1CCCCC1C(=O)OCCCCCCC(C)C (stereo unspecified) | 5
NCCNS(=O)(=O)c1cccc2cnccc12 | 4
O=S(O)c1ccc(Cl)cc1 | 4
Cc1c(N)nc(C(CC(N)=O)NCC(N)C(N)=O)nc1C(=O)NC(C(=O)NC(C)C(O)C(C)C(=O)NC(C(=O)NCCc1nc(-c2nc(C(=O)NCCCN[C@@H](C)c3ccccc3)cs2)cs1)C(C)O)C(O[C@@H]1O[C@@H](CO)[C@@H](O)[C@H](O)[C@@H]1O[C@H]1O[C@H](CO)[C@@H](O)[C@H](OC(N)=O)[C@@H]1O)c1c[nH]cn1 (stereo partly specified) | 5
